In paper PMC12428754, “Testing Strategies for Metabolite-Mediated Neurotoxicity” (International Journal of Molecular Sciences, 2025):

Legend:
[1] = for metabolite formation over time: samples every 30 min for 2 h
Procedure: Parent compounds were incubated at final concentrations of either (a) 5 µM or (b) 50 µM (for chlorfenapyr) with pooled human liver microsomes (HLM; mixed gender, n = 150; BioIVT; West Sussex, UK) at corresponding protein concentrations of (a) 0.52 mg/mL or (b) 5.2 mg/mL. Incubations were performed in the absence or presence of NADPH at final concentrations of (a) 1 mM or (b) 10 mM, respectively, using a thermostated orbital shaker at 37 °C and 150 rpm. Reactions were terminated at designated time points by the addition of acetonitrile/methanol (3:1, v/v). Samples were then centrifuged at 10,000× g for 10 min, and the resulting supernatants were analysed by LC-MS/MS.
All analytes were measured using an Acquity UPLC H-Class system coupled to a Xevo TQ-S micro mass spectrometer (Waters). Chromatographic separation was performed on an Acquity UPLC BEH C18 column (2.1 × 50 mm, 1.7 µm) with a mobile phase consisting of 0.1% formic acid in water (A) and acetonitrile (B). Unless otherwise stated, the column was maintained at 30 °C and operated at a flow rate of 0.4 mL/min. The standard gradient was 95% A from 0 to 1.0 min, decreased to 2% A by 1.5 min, held until 4.0 min, returned to 95% A at 4.3 min, and held until 5.0 min. […] The mass spectrometer operated in electrospray ionisation (ESI) mode. Compound-specific MRM transitions, cone voltages, and collision energies for all analytes are listed in Supplementary Table S2.
Int. J. Mol. Sci. 2025, 26, x FOR PEER REVIEW 3 of 5
Supplementary Figure S3: Quantification of specific metabolite formation from selected parent/metabolite pairs in a human liver microsomes (HLM) assay. Parent compounds (PAR) were incubated at a concentration of 5 µM (50 µM for chlorfenapyr) with HLM in the absence (dashed line, open symbols) or presence of NADPH (solid lines, closed symbols). Samples were taken every 30 min for 2 h (+NADPH) or at 2 h only (- NADPH). The remaining fraction of the PAR was quantified for each sample. Additionally, one key metabolite (MET) was measured. Its amount is expressed as fraction of PAR converted to MET, assuming an equimolar PAR to MET reaction, 100 % indicates a complete conversion. The middle-dashed line indicates a metabolite formation of at least 10% of PAR. Data are means of two measurements n.d. = not detected.
(1 picture or pasted object on this page, not shown here)

LUHMES cells = conditions: rat liver S9 50 µg/mL in testing module, 2 h preincubation, RFP-LUHMES; toxicity increased with NADPH
Procedure: Figure 4 A strategy to incorporate metabolic competence into in vitro DNT testing methods. (A) A schematic overview of a sequential metabolism and testing approach. The “metabolisation module” uses hepatic post-mitochondrial fractions (S9) to generate metabolite mixtures in the presence or absence of cofactors (NADPH, glucose-6-phosphate, MgCl2). These metabolite mixtures are tested in the “testing module” in a concentration-dependent manner after serial pre-dilutions. Metabolite mixtures are added as a fraction of 10% to the media volume of the “testing module”. The testing module may be a cell-based neurotoxicity (NT) or developmental neurotoxicity (DNT) assay, such as the neurite outgrowth or migration assay. Here, the Mito-Met neurite outgrowth assay, as in Figure 1, was used. […] The curves represent data from three independent experiments and were fitted using a four-parameter Hill function. […] The data represent three independent experiments. The indicated concentrations are “testing module” concentrations.
To further evaluate our modular pre-activation strategy for identifying metabolite-mediated hazard, we tested a broader panel of compounds. For each compound (parent), a single concentration was used in the metabolisation module. The metabolite mixtures were generated in the absence or presence of NADPH. These metabolite mixtures were serially diluted and assessed using the MitoMet neurite outgrowth assay. As a measure of potency, EC25 values were determined, and potency ratios were calculated to compare the effects of NADPH-dependent versus NADPH-independent metabolism.
Figure 5 The effect of NADPH-dependent hepatic metabolism on the DNT of selected compounds. (A) A strategy scheme to assess the effect of metabolic enzymes on the outcome of cell-based DNT assays. Metabolite mixtures are generated using the NADPH-(in)dependent metabolic activity of S9. NADPH-independent metabolism is shown in green (light grey). NADPH-dependent metabolism is shown in red (dark grey). […] (B–F) The concentration-dependent effect of metabolite mixtures on neurite outgrowth was measured as in Figure 1, with the following modifications: red-fluorescent-protein (RFP)-expressing LUHMES cells were used. As the assay endpoint, the RFP fluorescence of neurites was used instead of calcein staining. The curves represent data from three independent experiments and were fitted using a four-parameter Hill function. From this, an EC25 was calculated. Bold numbers indicate the fold changes between EC25 values of the NADPH-(in)dependent metabolite mixtures, with the direction of the arrow reflecting the shift in sensitivity. Note that the x-axes indicate nominal concentrations of parent compounds. […] Similar images were used for neurite quantification. The right image (red frame) of the pairs was obtained with NADPH. The black arrowheads above the curves indicate the experimental conditions used to record images. The scale bar in orange corresponds to 50 µm.
The MitoMet neurite outgrowth assay was performed as previously described. In brief, all cell culture dishes and flasks were pre-coated with 50 μg/mL poly-l-ornithine (PLO) and 1 μg/mL fibronectin. Proliferating LUHMES cells were maintained in AdvDMEM/F12 containing L-glutamine (2 mM), N2 supplement (1x), and FGF (40 ng/mL). For pre-differentiation, the cells were replated at a density of 46,000 cells/cm^2 one day prior to the induction of differentiation (defined as the day of differentiation, Day −1). Differentiation was initiated by exchanging the culture medium for AdvDMEM/F12 supplemented with L-glutamine (2 mM), N2 supplement (1x), dibutyryl-cAMP (1 mM), tetracycline (1 µg/mL), and GDNF (2 ng/mL). After two days of differentiation (Day 2), the cells were replated (100,000 cells/cm^2) into 96-well plates.

[2] = human liver microsomes, listed under the metabolite

## N#Cc1c(-c2ccc(Cl)cc2)[nH]c(C(F)(F)F)c1Br [Tralopyril]
[1]; human liver microsomes ± NADPH, result in words
  cofactor (NADPH) dependence of metabolite formation: clearly dependent on NADPH
[1]; [2]
  metabolite formation over time: time-dependent increase in metabolite formation
[1]; human liver microsomes, up to 2 h, listed under the metabolite
  conversion rate of parent to metabolite: approximately 10%

## CCOCn1c(-c2ccc(Cl)cc2)c(C#N)c(Br)c1C(F)(F)F [Chlorfenapyr]
LUHMES cells
  fold change between EC25 values of NADPH-independent and NADPH-dependent metabolite mixtures (toxification): > 6 x

## O=C(c1ccccc1)c1ccc(O)cc1 [4-Hydroxybenzophenone]
[1]; human liver microsomes, result in words
  extent of metabolite formation: only trace amounts
[1]; [2]
  metabolite formation over time: time-dependent increase in metabolite formation

## CN(c1c(Br)cc(Br)cc1Br)c1c([N+](=O)[O-])cc([N+](=O)[O-])cc1C(F)(F)F [Bromethalin]
LUHMES cells
  fold change between EC25 values of NADPH-independent and NADPH-dependent metabolite mixtures (toxification): 8 x
